Source: article PMC4457528, “Identification of Novel Small Molecule Inhibitors of Oncogenic RET Kinase” (PLoS ONE, 2015)
Read-outs that look alike come from different tables or passages of the source.

Assays:
Experiment in all cases: KinomeScan kinase panel, single concentration 10 µM
Format in all cases: binding
KinomeScan kinase panel [1] = molecular target: T1, KinomeScan kinase panel (Homo sapiens, UniProt Q15208); settings: NDR1, 10 µM; read-out: score (%)
T1 construct: purchased DiscoveRx (KinomeScan)

KinomeScan kinase panel [2] = molecular target: T2, KinomeScan kinase panel (Homo sapiens, UniProt Q9H2X6); settings: HIPK2, 10 µM; read-out: score (%)
T2 construct: purchased DiscoveRx (KinomeScan)

KinomeScan kinase panel [3] = molecular target: T3, KinomeScan kinase panel (Homo sapiens, UniProt P42336, Q546K); settings: PIK3CA(Q546K), 10 µM; read-out: score (%)
T3 construct: purchased DiscoveRx (KinomeScan)

KinomeScan kinase panel [4] = molecular target: T4, KinomeScan kinase panel (Homo sapiens, UniProt Q9UEW8); settings: kinase STK39; 10 µM; read-out: score (%)
T4 construct: purchased DiscoveRx (KinomeScan)

KinomeScan kinase panel [5] = molecular target: T5, KinomeScan kinase panel (Homo sapiens, UniProt P51617); settings: IRAK1, 10 µM; read-out: score (%)
T5 construct: purchased DiscoveRx (KinomeScan)
T5 sequence (P51617 whole entry): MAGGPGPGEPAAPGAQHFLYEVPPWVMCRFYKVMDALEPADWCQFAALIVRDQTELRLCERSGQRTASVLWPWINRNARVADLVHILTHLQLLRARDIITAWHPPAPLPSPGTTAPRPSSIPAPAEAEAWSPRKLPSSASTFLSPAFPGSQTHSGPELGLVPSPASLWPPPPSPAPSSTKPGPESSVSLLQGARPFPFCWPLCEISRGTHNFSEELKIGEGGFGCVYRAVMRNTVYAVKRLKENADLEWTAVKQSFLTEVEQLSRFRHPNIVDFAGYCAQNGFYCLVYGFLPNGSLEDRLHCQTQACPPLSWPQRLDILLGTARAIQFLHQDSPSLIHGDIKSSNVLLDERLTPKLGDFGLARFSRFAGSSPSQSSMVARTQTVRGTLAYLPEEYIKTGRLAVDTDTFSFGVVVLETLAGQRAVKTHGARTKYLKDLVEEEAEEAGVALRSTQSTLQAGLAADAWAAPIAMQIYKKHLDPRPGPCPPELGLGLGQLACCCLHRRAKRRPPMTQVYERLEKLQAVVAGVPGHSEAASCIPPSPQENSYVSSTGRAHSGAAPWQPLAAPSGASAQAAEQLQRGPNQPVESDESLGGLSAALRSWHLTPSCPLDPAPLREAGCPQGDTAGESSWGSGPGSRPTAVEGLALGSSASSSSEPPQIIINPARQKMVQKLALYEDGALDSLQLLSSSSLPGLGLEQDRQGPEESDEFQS

KinomeScan kinase panel [6] = molecular target: T6, KinomeScan kinase panel (Homo sapiens, UniProt Q9UHD2); settings: kinase TBK1; 10 µM; read-out: score (%)
T6 construct: purchased DiscoveRx (KinomeScan)

KinomeScan kinase panel [7] = molecular target: T7, KinomeScan kinase panel (Homo sapiens, UniProt P00533, L858R/T790M); settings: EGFR(L858R.T790M), 10 µM
T7 construct: purchased DiscoveRx (KinomeScan)

KinomeScan kinase panel [8] = molecular target: T8, KinomeScan kinase panel (Homo sapiens, UniProt Q13233); settings: MAP3K1, 10 µM; read-out: score (%)
T8 construct: purchased DiscoveRx (KinomeScan)

KinomeScan kinase panel [9] = molecular target: T9, KinomeScan kinase panel (Homo sapiens, UniProt Q9Y2U5); settings: MAP3K2, 10 µM; read-out: score (%)
T9 construct: purchased DiscoveRx (KinomeScan)
T9 sequence (Q9Y2U5 whole entry): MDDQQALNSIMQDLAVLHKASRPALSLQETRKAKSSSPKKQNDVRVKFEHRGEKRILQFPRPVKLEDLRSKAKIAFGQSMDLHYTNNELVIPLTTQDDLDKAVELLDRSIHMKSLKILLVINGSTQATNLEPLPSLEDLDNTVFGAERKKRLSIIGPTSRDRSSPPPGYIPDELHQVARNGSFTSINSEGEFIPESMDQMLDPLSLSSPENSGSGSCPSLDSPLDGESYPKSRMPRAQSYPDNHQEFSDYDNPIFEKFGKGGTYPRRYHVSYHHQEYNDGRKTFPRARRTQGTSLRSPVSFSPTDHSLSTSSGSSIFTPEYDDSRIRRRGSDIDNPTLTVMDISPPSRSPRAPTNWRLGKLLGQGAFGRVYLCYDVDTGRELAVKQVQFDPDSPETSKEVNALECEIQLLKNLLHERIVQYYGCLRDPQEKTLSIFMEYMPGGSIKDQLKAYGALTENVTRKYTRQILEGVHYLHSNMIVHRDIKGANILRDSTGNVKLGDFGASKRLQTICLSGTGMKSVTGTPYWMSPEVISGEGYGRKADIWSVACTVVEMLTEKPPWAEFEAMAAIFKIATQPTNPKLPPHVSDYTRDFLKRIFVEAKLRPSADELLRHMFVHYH

KinomeScan kinase panel [10] = molecular target: T10, KinomeScan kinase panel (Homo sapiens, UniProt P42336, H1047Y); settings: PIK3CA(H1047Y), 10 µM; read-out: score (%)
T10 construct: purchased DiscoveRx (KinomeScan)

KinomeScan kinase panel [11] = molecular target: T11, KinomeScan kinase panel (Homo sapiens, UniProt O43283); settings: LZK, 10 µM
T11 construct: purchased DiscoveRx (KinomeScan)

KinomeScan kinase panel [12] = molecular target: T12, KinomeScan kinase panel (Homo sapiens, UniProt Q15835); settings: GRK1, 10 µM; read-out: score (%)
T12 construct: purchased DiscoveRx (KinomeScan)

KinomeScan kinase panel [13] = molecular target: T13, KinomeScan kinase panel (Homo sapiens, UniProt P42336, C420R); settings: PIK3CA(C420R), 10 µM; read-out: score (%)
T13 construct: purchased DiscoveRx (KinomeScan)

KinomeScan kinase panel [14] = molecular target: T14, KinomeScan kinase panel (Homo sapiens, UniProt P42336, E542K); settings: PIK3CA(E542K), 10 µM; read-out: score (%)
T14 construct: purchased DiscoveRx (KinomeScan)

KinomeScan kinase panel [15] = molecular target: T15, KinomeScan kinase panel (Homo sapiens, UniProt P08581, M1250T); settings: MET(M1250T), 10 µM
T15 construct: purchased DiscoveRx (KinomeScan)

KinomeScan kinase panel [16] = molecular target: T16, KinomeScan kinase panel (Homo sapiens, UniProt P08581, Y1235D); settings: MET(Y1235D), 10 µM
T16 construct: purchased DiscoveRx (KinomeScan)

KinomeScan kinase panel [17] = molecular target: T17, KinomeScan kinase panel (Homo sapiens, UniProt P10721, L576P); settings: KIT(L576P), 10 µM; read-out: score (%)
T17 construct: purchased DiscoveRx (KinomeScan)

KinomeScan kinase panel [18] = molecular target: T18, KinomeScan kinase panel (Homo sapiens, UniProt O95747); settings: OSR1, 10 µM; read-out: score (%)
T18 construct: purchased DiscoveRx (KinomeScan)
T18 sequence (O95747 whole entry): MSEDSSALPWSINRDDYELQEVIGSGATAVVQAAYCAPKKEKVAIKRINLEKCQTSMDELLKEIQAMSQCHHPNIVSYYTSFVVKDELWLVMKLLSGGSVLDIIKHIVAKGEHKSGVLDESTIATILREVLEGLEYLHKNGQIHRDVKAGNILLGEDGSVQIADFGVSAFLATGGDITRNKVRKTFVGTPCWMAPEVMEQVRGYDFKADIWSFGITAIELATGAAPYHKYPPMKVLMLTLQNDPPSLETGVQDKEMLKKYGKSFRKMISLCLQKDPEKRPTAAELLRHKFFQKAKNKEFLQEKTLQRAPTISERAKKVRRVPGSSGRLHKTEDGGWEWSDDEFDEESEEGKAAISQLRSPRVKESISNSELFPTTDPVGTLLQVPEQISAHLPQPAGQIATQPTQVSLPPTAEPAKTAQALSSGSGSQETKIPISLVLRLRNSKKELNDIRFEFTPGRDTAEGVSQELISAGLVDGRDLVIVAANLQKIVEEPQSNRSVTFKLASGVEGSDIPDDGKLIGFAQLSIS

KinomeScan kinase panel [19] = molecular target: T19, KinomeScan kinase panel (Homo sapiens, UniProt P21860); settings: ERBB3, 10 µM; read-out: score (%)
T19 construct: purchased DiscoveRx (KinomeScan)

KinomeScan kinase panel [20] = molecular target: T20, KinomeScan kinase panel (Homo sapiens, UniProt Q92630); settings: DYRK2, 10 µM; read-out: score (%)
T20 construct: purchased DiscoveRx (KinomeScan)
T20 sequence (Q92630 whole entry): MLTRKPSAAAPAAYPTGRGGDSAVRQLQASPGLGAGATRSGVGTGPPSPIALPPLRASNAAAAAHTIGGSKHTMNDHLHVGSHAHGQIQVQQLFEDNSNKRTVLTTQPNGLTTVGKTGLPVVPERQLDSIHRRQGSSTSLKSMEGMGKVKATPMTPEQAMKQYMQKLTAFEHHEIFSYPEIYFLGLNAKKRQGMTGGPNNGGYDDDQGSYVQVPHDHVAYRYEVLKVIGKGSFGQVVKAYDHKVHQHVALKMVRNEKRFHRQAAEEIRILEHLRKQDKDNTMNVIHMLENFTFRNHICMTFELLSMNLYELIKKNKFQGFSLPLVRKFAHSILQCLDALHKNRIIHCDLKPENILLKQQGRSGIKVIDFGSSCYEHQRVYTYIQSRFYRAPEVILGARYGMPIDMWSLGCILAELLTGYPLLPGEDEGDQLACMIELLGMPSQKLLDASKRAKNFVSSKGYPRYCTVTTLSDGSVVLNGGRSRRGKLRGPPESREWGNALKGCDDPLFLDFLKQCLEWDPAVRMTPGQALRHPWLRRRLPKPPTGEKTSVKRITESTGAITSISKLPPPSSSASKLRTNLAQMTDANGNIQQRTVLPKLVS

KinomeScan kinase panel [21] = molecular target: T21, KinomeScan kinase panel (Homo sapiens, UniProt P42336, E545A); settings: PIK3CA(E545A), 10 µM; read-out: score (%)
T21 construct: purchased DiscoveRx (KinomeScan)

KinomeScan kinase panel [22] = molecular target: T22, KinomeScan kinase panel (Homo sapiens, UniProt Q8IY84); settings: NIM1, 10 µM; read-out: score (%)
T22 construct: purchased DiscoveRx (KinomeScan)
T22 sequence (Q8IY84 whole entry): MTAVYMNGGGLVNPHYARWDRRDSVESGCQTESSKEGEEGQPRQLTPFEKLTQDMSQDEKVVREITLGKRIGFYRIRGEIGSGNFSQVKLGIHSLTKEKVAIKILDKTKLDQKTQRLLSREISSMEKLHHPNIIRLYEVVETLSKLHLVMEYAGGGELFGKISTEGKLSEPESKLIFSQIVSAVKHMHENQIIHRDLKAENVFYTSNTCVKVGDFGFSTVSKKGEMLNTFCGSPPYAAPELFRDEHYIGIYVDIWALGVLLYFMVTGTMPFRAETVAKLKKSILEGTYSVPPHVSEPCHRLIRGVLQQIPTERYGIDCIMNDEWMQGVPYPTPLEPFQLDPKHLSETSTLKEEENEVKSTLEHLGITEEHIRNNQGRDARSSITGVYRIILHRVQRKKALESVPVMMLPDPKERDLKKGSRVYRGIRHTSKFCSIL

KinomeScan kinase panel [23] = molecular target: T23, KinomeScan kinase panel (Homo sapiens, UniProt P42336, M1043I); settings: PIK3CA(M1043I), 10 µM; read-out: score (%)
T23 construct: purchased DiscoveRx (KinomeScan)

KinomeScan kinase panel [24] = molecular target: T24, KinomeScan kinase panel (Homo sapiens, UniProt Q8WTQ7); settings: GRK7, 10 µM; read-out: score (%)
T24 construct: purchased DiscoveRx (KinomeScan)

KinomeScan kinase panel [25] = molecular target: T25, KinomeScan kinase panel (Homo sapiens, UniProt Q6ZN16); settings: MAP3K15, 10 µM; read-out: score (%)
T25 construct: purchased DiscoveRx (KinomeScan)

KinomeScan kinase panel [26] = molecular target: T26, KinomeScan kinase panel (Homo sapiens, UniProt P57058); settings: HUNK, 10 µM; read-out: score (%)
T26 construct: purchased DiscoveRx (KinomeScan)

KinomeScan kinase panel [27] = molecular target: T27, KinomeScan kinase panel (Homo sapiens, UniProt Q8NE63); settings: HIPK4, 10 µM; read-out: score (%)
T27 construct: purchased DiscoveRx (KinomeScan)

KinomeScan kinase panel [28] = molecular target: T28, KinomeScan kinase panel (Homo sapiens, UniProt Q13523); settings: read-out: score (%)
T28 construct: purchased DiscoveRx (KinomeScan)

KinomeScan kinase panel [29] = molecular target: T29, KinomeScan kinase panel (Homo sapiens, UniProt Q9H422); settings: HIPK3, 10 µM; read-out: score (%)
T29 construct: purchased DiscoveRx (KinomeScan)
T29 sequence (Q9H422 whole entry): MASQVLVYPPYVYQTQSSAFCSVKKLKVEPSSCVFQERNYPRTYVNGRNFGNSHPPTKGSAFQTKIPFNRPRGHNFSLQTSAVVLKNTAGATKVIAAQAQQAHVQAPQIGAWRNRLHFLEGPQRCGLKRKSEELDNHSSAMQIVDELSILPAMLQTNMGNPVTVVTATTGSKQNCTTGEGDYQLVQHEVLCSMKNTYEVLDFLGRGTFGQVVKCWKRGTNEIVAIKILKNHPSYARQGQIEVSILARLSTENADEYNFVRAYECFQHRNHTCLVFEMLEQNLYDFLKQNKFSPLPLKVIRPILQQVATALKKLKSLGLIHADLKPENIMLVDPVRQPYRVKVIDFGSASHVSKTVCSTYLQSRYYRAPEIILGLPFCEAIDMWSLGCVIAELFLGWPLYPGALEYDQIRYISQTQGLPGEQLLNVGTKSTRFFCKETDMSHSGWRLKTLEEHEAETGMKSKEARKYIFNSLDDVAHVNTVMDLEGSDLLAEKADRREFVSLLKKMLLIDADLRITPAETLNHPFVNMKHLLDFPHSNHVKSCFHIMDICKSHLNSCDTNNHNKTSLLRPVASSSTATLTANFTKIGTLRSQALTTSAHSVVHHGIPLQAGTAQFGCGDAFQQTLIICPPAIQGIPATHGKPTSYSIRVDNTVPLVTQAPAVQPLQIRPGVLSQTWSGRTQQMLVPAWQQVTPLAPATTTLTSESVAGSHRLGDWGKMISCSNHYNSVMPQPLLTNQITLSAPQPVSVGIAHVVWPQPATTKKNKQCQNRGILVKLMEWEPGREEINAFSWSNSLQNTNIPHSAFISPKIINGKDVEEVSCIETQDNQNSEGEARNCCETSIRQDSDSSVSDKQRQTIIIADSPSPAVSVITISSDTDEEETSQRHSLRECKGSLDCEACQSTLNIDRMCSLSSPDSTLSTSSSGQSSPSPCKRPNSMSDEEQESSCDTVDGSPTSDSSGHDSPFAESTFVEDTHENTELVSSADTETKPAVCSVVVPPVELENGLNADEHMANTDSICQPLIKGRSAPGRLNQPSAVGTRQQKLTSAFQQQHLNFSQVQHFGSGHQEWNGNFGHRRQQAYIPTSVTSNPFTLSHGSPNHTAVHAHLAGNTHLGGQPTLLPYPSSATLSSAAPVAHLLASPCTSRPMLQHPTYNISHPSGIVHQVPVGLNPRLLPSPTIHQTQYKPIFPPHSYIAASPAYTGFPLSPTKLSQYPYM

KinomeScan kinase panel [30] = molecular target: T30, KinomeScan kinase panel (Homo sapiens, UniProt O75460); settings: ERN1, 10 µM; read-out: score (%)
T30 construct: purchased DiscoveRx (KinomeScan)

KinomeScan kinase panel [31] = molecular target: T31, KinomeScan kinase panel (Homo sapiens, UniProt P42336, H1047L); settings: PIK3CA(H1047L), 10 µM; read-out: score (%)
T31 construct: purchased DiscoveRx (KinomeScan)

KinomeScan kinase panel [32] = molecular target: T32, KinomeScan kinase panel (Homo sapiens, UniProt Q9Y6M4); settings: CSNK1G3, 10 µM
T32 construct: purchased DiscoveRx (KinomeScan)
T32 sequence (Q9Y6M4 whole entry): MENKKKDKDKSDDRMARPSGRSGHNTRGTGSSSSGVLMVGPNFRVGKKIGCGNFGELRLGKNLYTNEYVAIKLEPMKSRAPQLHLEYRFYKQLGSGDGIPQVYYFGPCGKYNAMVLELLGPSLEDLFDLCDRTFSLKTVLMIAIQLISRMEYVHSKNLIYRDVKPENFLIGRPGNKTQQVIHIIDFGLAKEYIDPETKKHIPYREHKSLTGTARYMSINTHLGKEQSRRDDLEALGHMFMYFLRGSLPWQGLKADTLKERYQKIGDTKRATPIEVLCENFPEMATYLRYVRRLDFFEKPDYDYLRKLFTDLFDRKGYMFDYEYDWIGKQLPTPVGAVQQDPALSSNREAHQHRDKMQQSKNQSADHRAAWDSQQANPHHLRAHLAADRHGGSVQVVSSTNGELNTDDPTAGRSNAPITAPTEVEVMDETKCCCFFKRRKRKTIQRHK

KinomeScan kinase panel [33] = molecular target: T33, KinomeScan kinase panel (Homo sapiens, UniProt P53779); settings: JNK3, 10 µM
T33 construct: purchased DiscoveRx (KinomeScan)
T33 sequence (P53779 whole entry): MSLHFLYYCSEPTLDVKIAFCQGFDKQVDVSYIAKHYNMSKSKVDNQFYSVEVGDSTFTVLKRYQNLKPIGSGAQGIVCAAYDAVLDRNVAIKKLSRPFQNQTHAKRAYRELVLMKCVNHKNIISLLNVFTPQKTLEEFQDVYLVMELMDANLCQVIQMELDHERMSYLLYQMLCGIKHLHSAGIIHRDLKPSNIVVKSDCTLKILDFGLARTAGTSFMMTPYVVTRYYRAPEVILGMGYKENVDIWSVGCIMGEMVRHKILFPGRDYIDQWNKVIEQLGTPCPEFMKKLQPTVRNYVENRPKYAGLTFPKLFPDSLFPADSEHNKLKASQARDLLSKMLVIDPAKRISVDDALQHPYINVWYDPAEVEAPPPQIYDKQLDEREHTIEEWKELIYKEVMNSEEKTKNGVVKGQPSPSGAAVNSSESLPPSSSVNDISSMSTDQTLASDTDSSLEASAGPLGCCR

Compound | remaining binding at 10 µM (KinomeScan kinase panel [1]) | remaining binding at 10 µM (KinomeScan kinase panel [2]) | remaining binding at 10 µM (KinomeScan kinase panel [3]) | remaining binding at 10 µM (KinomeScan kinase panel [4]) | remaining binding at 10 µM (KinomeScan kinase panel [5]) | remaining binding at 10 µM (KinomeScan kinase panel [6]) | score (%) (KinomeScan kinase panel [7]) | remaining binding at 10 µM (KinomeScan kinase panel [8]) | remaining binding at 10 µM (KinomeScan kinase panel [9]) | remaining binding at 10 µM (KinomeScan kinase panel [10]) | score (%) (KinomeScan kinase panel [11]) | remaining binding at 10 µM (KinomeScan kinase panel [12]) | remaining binding at 10 µM (KinomeScan kinase panel [13]) | remaining binding at 10 µM (KinomeScan kinase panel [14]) | score (%) (KinomeScan kinase panel [15]) | score (%) (KinomeScan kinase panel [16]) | remaining binding at 10 µM (KinomeScan kinase panel [17]) | remaining binding at 10 µM (KinomeScan kinase panel [18]) | remaining binding at 10 µM (KinomeScan kinase panel [19]) | remaining binding at 10 µM (KinomeScan kinase panel [20]) | other results
CCN1CCN(Cc2ccc(NC(=O)c3ccc(C)c(NC(=O)c4cncc(-c5cccs5)c4)c3)cc2C(F)(F)F)CC1 [ALW-II-41-27] | > 30% | > 30% | > 30% | > 30% | 17% | > 30% | nb (Hits values higher than 30% were considered negative (no binding: nb)) | > 30% | 3.8% | > 30% | 15% | > 30% | > 30% | > 30% | nb (Hits values higher than 30% were considered negative (no binding: nb)) | nb (Hits values higher than 30% were considered negative (no binding: nb)) | 0% | > 30% | > 30% | 18% | remaining binding at 10 µM (KinomeScan kinase panel [21]): > 30%; remaining binding at 10 µM (KinomeScan kinase panel [22]): > 30%; remaining binding at 10 µM (KinomeScan kinase panel [23]): > 30%; remaining binding at 10 µM (KinomeScan kinase panel [24]): 16%; remaining binding at 10 µM (KinomeScan kinase panel [25]): > 30%; remaining binding at 10 µM (KinomeScan kinase panel [26]): > 30%; remaining binding at 10 µM (KinomeScan kinase panel [27]): 25%; remaining binding at 10 µM (KinomeScan kinase panel [28]; PRP4, 10 µM): > 30%; remaining binding at 10 µM (KinomeScan kinase panel [29]): > 30%; remaining binding at 10 µM (KinomeScan kinase panel [30]): 1.4%; remaining binding at 10 µM (KinomeScan kinase panel [31]): > 30%
CCN1CCN(Cc2ccc(NC(=O)c3ccc(C)c(C#Cc4cccnc4)c3)cc2C(F)(F)F)CC1 [XMD15-44] | 4% | > 30% | 100% | 89% | 1.2% | 100% | nb (Hits values higher than 30% were considered negative (no binding: nb)) | > 30% | 0.15% | 81% | 7.4% | > 30% | 72% | 100% | nb (Hits values higher than 30% were considered negative (no binding: nb)) | nb (Hits values higher than 30% were considered negative (no binding: nb)) | 0% | 48% | > 30% | > 30% | score (%) (KinomeScan kinase panel [32]): nb (Hits values higher than 30% were considered negative (no binding: nb)); remaining binding at 10 µM (KinomeScan kinase panel [21]): 93%; remaining binding at 10 µM (KinomeScan kinase panel [22]): 97%; remaining binding at 10 µM (KinomeScan kinase panel [23]): 83%; remaining binding at 10 µM (KinomeScan kinase panel [24]): > 30%; remaining binding at 10 µM (KinomeScan kinase panel [25]): > 30%; remaining binding at 10 µM (KinomeScan kinase panel [26]): > 30%; score (%) (KinomeScan kinase panel [33]): 0.95%; remaining binding at 10 µM (KinomeScan kinase panel [27]): 2.2%; remaining binding at 10 µM (KinomeScan kinase panel [28]; kinase PRP4, 10 µM): 54%; remaining binding at 10 µM (KinomeScan kinase panel [29]): 18%; remaining binding at 10 µM (KinomeScan kinase panel [30]): > 30%; remaining binding at 10 µM (KinomeScan kinase panel [31]): 100%
CCN1CCN(Cc2ccc(NC(=O)c3ccc(C)c(/C=C/c4cnc5[nH]ccc5c4Cl)c3)cc2C(F)(F)F)CC1 [HG-6-63-01, (E)-3-(2-(4-chloro-1H-pyrrolo[2,3-b]pyridin-5-yl)vinyl)-N-(4-((4-ethylpiperazin-1-yl)methyl)-3-(trifluoromethyl)phenyl)-4-methylbenzamide] | – | – | – | – | – | – | – | – | – | – | – | – | – | – | – | – | – | – | – | – | score (%) (KinomeScan kinase panel [32]): nb (Hits values higher than 30% were considered negative (no binding: nb)); score (%) (KinomeScan kinase panel [33]): nb (Hits values higher than 30% were considered negative (no binding: nb))
